≈ marks a conversion by molar mass, not a printed value.
Columns and labels:
P. Berghei = assay: In vivo efficacy mouse malaria model; conditions: 1×/day
Procedure: Test compounds will be compared to chloroquine, artemisinin, mefloquine as follows: NMRI mice, SPF, females, […]
From a donor mouse with approximately 30% parasitemia, heparinized blood is taken and diluted in physiological saline to 10^8 parasitized erythrocytes per mL. An aliquot of 0.2 mL (=2×10^7 parasitized erythrocytes) of this suspension is injected intravenously (i.v.) into experimental groups of 4 mice.
Two-to-four hours post-infection, the experimental groups are treated with a single dose by the subcutaneous or the oral route. The compounds are prepared at an appropriate concentration, as a solution or suspension containing 3% ethanol and 7% Tween 80 or in SSV (standard suspending vehicle): […]
Twenty-four hours after the last treatment ([…]) blood smears from all animals are prepared and stained with Giemsa. Parasitemia is determined microscopically by counting 400 red blood cells (“rbcs”), for low parasitemias (<1%) up to 4,000 rbc's have to be counted. The difference between the mean value of the control group (taken as 100%) and those of the experimental groups is calculated and expressed as % Reduction where: [formula]
Additional smears will be taken on day 5 and day 6; and parasitemia will be determined and the activity calculated. Survival time (in days) is recorded, and the mean survival time is calculated. Adverse effects are recorded. Four mice/compound and a minimum of 12 mice/study (vehicle and positive controls run concurrently) are used.

[1] = tested on: T. b. rhodesiense STIB 900; assay: African sleeping sickness in vitro screening model (Alamar Blue); format: cell-based, Trypanosoma brucei rhodesiense; conditions: for IC50: Trypanosoma brucei
Outline: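 Bloodstream-form trypomastigotes, 8×10^3/well, were grown in supplemented MEM with 15% horse serum, without hypoxanthine, at 37 °C in 5% CO2. They were exposed for 72 h to seven 3-fold dilutions from 90 to 0.123 μg/mL. Resazurin (Alamar Blue) was added for 2 h, fluorescence read at ex 536/em 588 nm, and IC50 taken as the mean of four values.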

P. falciparum K1 = assay: Malaria in vitro screening model (3H-hypoxanthine incorporation); format: cell-based, Plasmodium falciparum; conditions: for IC50: Plasmodium falciparum, K1
Outline: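 Chloroquine/pyrimethamine-resistant P. falciparum K1 in human A+ erythrocytes (0.15% parasitemia, 2.5% hematocrit) was exposed to seven 2-fold compound dilutions in hypoxanthine-free medium at 37 °C, low O2. After 48 h, 0.5 μCi ³H-hypoxanthine was added for 24 h more. IC50 was taken from sigmoidal curves as % of untreated control.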

[2] = tested on: Trypanosoma cruzi Tulahuen C2C4 strain; assay: Chagas disease in vitro screening model (beta-galactosidase strain in L-6 cells); format: cell-based; conditions: for IC50: Trypanosoma cruzi, TULAHUEN, L6, read-out: T. cruzi IC50
Outline: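 L-6 rat myoblasts in RPMI 1640/10% FBS at 37 °C were infected with 5×10^3 lacZ-expressing T. cruzi Tulahuen C2C4 trypomastigotes. CPRG/Nonidet substrate was read at 540 nm, and IC50 came from sigmoidal curves.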

[3] = tested on: Leishmania donovani strain MHOM/ET1671L82; assay: Leishmaniasis in vitro screening model (axenic amastigotes, Alamar Blue); format: cell-based; conditions: for IC50: Leishmania donovani, read-out: L. donovani IC50
Outline: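 Axenic L. donovani amastigotes (10^5 per well) from hamster spleen, grown at 37° C in SM medium pH 5.4 with 10% FBS, 5% CO2, exposed to serial 3-fold compound dilutions (30 to 0.041 μg/mL) for 72 h. Alamar Blue added for 2 h, fluorescence read (ex 536/em 588 nm); IC50 from sigmoidal curve versus control cultures.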

Fc1cccc(B(Oc2cccc3cccnc23)c2ccc(Cl)cc2)c1 [Compound 11, (4-Chlorophenyl)(3-fluorophenyl) borinic acid quinolin-8-yl ester]
% of Activity (P. Berghei; 4 × 30 mg/kg, s.c.): 42.46%
Mean Survival (P. Berghei; 4 × 30 mg/kg, s.c.): 19.7 days
Parasitized RBC over 100 % of Control (P. Berghei; 4 × 30 mg/kg, s.c.): 57.54%
Parasitized RBC over 100 Mean (P. Berghei; 4 × 30 mg/kg, s.c.): 14.3
% of Activity (P. Berghei; 4 × 100 mg/kg, p.o.): 58.22%
Mean Survival (P. Berghei; 4 × 100 mg/kg, p.o.): 15.0 days
Parasitized RBC over 100 % of Control (P. Berghei; 4 × 100 mg/kg, p.o.): 41.78%
Parasitized RBC over 100 Mean (P. Berghei; 4 × 100 mg/kg, p.o.): 10.4

C=CB(Oc1c(N(C)C)cc(Cl)c2cccnc12)c1ccnc(Cl)c1 [Compound 83]
T. b. rhodesiense IC50 [1]: 0.715 µg/mL
P. falciparum IC50 (P. falciparum K1): 0.979 µg/mL
T. cruzi IC50 [2]: 0.77 µg/mL
L. donovani IC50 [3]: 1.1 µg/mL

CN(C)Cc1ccc(B(Oc2cccc3cccnc23)c2cccc(C3=NC(C)(C)CO3)c2)cc1 [Compound 126]
T. b. rhodesiense IC50 [1]: 0.595 µg/mL
P. falciparum IC50 (P. falciparum K1): 4.746 µg/mL
T. cruzi IC50 [2]: 5.05 µg/mL
L. donovani IC50 [3]: 0.45 µg/mL

CS(=O)(=O)Nc1ccc(B(Oc2cccc3cccnc23)c2cccc(Cl)c2)cc1 [Compound 108]
T. b. rhodesiense IC50 [1]: 0.305 µg/mL
P. falciparum IC50 (P. falciparum K1): 2.417 µg/mL
T. cruzi IC50 [2]: 4.95 µg/mL
L. donovani IC50 [3]: 0.59 µg/mL

Fc1cc(F)cc(B(Oc2cccc3cccnc23)c2ccc(Cl)cc2)c1 [Compound 44, (4-Chlorophenyl)(3,5-difluorophenyl)borinic acid quinolin-8-yl ester]
IC50 [1]: 0.275 µg/mL (≈ 0.724 µM)
IC50 (P. falciparum K1): 1.87 µg/mL (≈ 4.93 µM)
IC50 [2]: 0.71 µg/mL (≈ 1.87 µM)
IC50 [3]: 0.5 µg/mL (≈ 1.32 µM)

Fc1ccc(F)c(B(Oc2cccc3cccnc23)c2ccc(Cl)cc2)c1 [Compound 40, (4-Chlorophenyl)(2,5-difluorophenyl)borinic acid quinolin-8-yl ester]
IC50 [1]: 0.295 µg/mL (≈ 0.777 µM)
IC50 (P. falciparum K1): 1.72 µg/mL (≈ 4.53 µM)
IC50 [2]: 0.89 µg/mL (≈ 2.34 µM)
IC50 [3]: 0.59 µg/mL (≈ 1.55 µM)

O=C(O)CCCOc1cccnc1C(=O)OB(c1cccc(Cl)c1)c1cccc(Cl)c1 [Compound 75]
T. b. rhodesiense IC50 [1]: 31.1 µg/mL
P. falciparum IC50 (P. falciparum K1): 0.494 µg/mL
T. cruzi IC50 [2]: 8.9 µg/mL
L. donovani IC50 [3]: 0.61 µg/mL

Fc1ccc(B(Oc2cccc3cccnc23)c2ccc(F)c(Cl)c2)cc1Cl [Compound 12, Bis(3-chloro-4-fluoro-phenyl)borinic acid quinolin-8-yl ester]
IC50 [1]: 0.52 µg/mL (≈ 1.26 µM)
IC50 (P. falciparum K1): 1.5 µg/mL (≈ 3.62 µM)
IC50 [2]: 5.6 µg/mL (≈ 13.5 µM)
IC50 [3]: 0.68 µg/mL (≈ 1.64 µM)

N#Cc1cccc(B(Oc2cccc3cccnc23)c2ccccc2F)c1 [Compound 33, (3-Cyanophenyl)(2-fluorophenyl)borinic acid quinolin-8-yl ester]
IC50 [1]: 0.3 µg/mL (≈ 0.852 µM)
IC50 (P. falciparum K1): 1.79 µg/mL (≈ 5.08 µM)
IC50 [2]: 1.39 µg/mL (≈ 3.95 µM)
IC50 [3]: 0.61 µg/mL (≈ 1.73 µM)

Fc1cccc(B(Oc2cccc3cccnc23)c2ccc(Cl)c(C(F)(F)F)c2)c1 [Compound 115]
T. b. rhodesiense IC50 [1]: 0.465 µg/mL
P. falciparum IC50 (P. falciparum K1): 3.077 µg/mL
T. cruzi IC50 [2]: 3.6 µg/mL
L. donovani IC50 [3]: 0.59 µg/mL

Fc1cc(B(Oc2cccc3cccnc23)c2ccc(Cl)c(F)c2)ccc1Cl [Compound 89]
T. b. rhodesiense IC50 [1]: 0.41 µg/mL
P. falciparum IC50 (P. falciparum K1): 1.385 µg/mL
T. cruzi IC50 [2]: 1.36 µg/mL
L. donovani IC50 [3]: 0.38 µg/mL

Source: patent publication US20060014723A1, “Anti-parasitic uses of borinic acid complexes” (priority 2004, published 2006)
